From patent US6339098B1, “2,1-benzisothiazoline 2,2-dioxides” (American Home Products Corporation, priority 1999, dated 2002) come the findings set out here.

The target of the test is T1, human PR (hPR-B) (Homo sapiens, UniProt P06401).
T1 construct: expressed in transfected cells; host or cells: CV-1 cells (electroporation with pLEM-hPR-B and pGL3-2xPRE-luciferase)
T1 sequence (P06401 1-933): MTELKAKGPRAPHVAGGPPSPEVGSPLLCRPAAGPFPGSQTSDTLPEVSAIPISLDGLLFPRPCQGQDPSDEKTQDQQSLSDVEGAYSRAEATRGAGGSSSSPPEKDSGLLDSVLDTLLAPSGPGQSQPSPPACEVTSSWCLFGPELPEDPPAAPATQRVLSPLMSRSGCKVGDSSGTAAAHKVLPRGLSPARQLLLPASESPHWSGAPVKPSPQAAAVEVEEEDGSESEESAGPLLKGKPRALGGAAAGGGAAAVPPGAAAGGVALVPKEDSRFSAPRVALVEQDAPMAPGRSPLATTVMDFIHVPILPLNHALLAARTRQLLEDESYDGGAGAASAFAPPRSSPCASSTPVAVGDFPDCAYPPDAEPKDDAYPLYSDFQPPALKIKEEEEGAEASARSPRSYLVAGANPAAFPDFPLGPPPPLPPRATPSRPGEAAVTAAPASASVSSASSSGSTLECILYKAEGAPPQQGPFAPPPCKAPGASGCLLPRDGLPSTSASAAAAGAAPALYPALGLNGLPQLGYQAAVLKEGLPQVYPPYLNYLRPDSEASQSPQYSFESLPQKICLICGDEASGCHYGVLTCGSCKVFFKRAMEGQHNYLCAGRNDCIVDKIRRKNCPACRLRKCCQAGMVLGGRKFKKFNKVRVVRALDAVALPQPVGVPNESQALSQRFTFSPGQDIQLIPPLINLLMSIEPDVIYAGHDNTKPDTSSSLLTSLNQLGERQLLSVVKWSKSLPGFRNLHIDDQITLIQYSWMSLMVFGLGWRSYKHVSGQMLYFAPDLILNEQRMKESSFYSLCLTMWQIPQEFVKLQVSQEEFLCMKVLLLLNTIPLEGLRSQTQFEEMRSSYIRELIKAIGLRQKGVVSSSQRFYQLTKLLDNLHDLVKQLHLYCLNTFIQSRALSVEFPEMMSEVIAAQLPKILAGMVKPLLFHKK
The test can be described thus: PRE-luciferase reporter activity in CV-1 cells co-transfected with human PR and PRE-luciferase plasmids (antiprogestational activity). Format: cell-based. The following applies: CV-1 cells co-transfected with hPR-B and PRE-luciferase; in the presence of 3 nM progesterone; 24 h treatment; read-out: IC50 (concentration giving half-maximal decrease in 3 nM progesterone induced PRE-luciferase activity). Here is the method:
The procedure used and results obtained are described in Example 2 below.
Growth medium: DMEM (BioWhittaker) containing 10% (v/v) fetal bovine serum (heat inactivated), 0.1 mM MEM non-essential amino acids, 100 U/ml penicillin, […] streptomycin, and 2 mM GlutaMax (GIBCO, BRL).
Experimental medium: DMEM (BioWhittaker), phenol red-free, containing 10% (v/v) charcoal-stripped fetal bovine serum (heat-inactivated), 0.1 mM MEM non-essential amino acids, 100 U/ml penicillin, […] streptomycin, and 2 mM GlutaMax (GIBCO, BRL).
Stock CV-1 cells were maintained in growth medium. Co-transfection was done using 1.2×10^7 cells, 5 mg pLEM plasmid with hPR-B inserted at Sph1 and BamH1 sites, 10 mg pGL3 plasmid with two PREs upstream of the luciferase sequence, and 50 mg sonicated calf thymus DNA as carrier DNA in […]. Electroporation was carried out at 260 V and […] in a Biorad Gene Pulser II. After electroporation, cells were resuspended in growth medium and plated in 96-well plate at 40,000 cells/well in […]. Following overnight incubation, the medium was changed to experimental medium Cells were then treated with reference or test compounds in experimental medium. Compounds were tested for antiprogestational activity in the presence of 3 nM progesterone. […] Luciferase activity was measured using luciferase reagents from Promega. […]

In the case of `O=S1(=O)Nc2ccc(-c3cccc(Cl)c3)cc2C12CCCCC2` [Example 1], the IC50 turned out to be 900 nM.
